Test results as given in patent US11753418B2, “Compounds for the modulation of Myc activity” (Syros Pharmaceuticals, Inc., priority 2015, dated 2023).
pIC50: −log10 of the molar value. Counter-ions that a name gives are not always drawn.

Assays:
c-Myc/Max/Ebox DNA = target: T1, c-Myc/Max/Ebox DNA (Homo sapiens, UniProt P01106); test: c-Myc/Max/Ebox DNA AlphaScreen Assay; format: binding; settings: free c-Myc 20 nM, his6-Max 5 nM, biotinylated Ebox oligo 10 nM, 2 hour incubation
T1 construct: his6 (cleaved yes)
Description: Compounds of the invention were assayed for c-Myc/Max/EBox activity as described in the following protocol. Human his6-c-Myc and his6-Max were used with biotinylated DNA containing a single Ebox sequence (biotin[…]) purchased from MWG Operon. Free c-Myc was generated from his6-c-Myc through thrombin cleavage of the his6 tag. For 384-well plate assays, 10 μL of a 2× solution of free c-Myc (20 nM final), Ni^2+ coated Acceptor Beads (25 μg/ml final), and biotinylated Ebox oligo (10 nM final) were added to 384-well plates with a Biotek EL406 liquid handler. 50 nL of compounds from stock plates were added by pin transfer using a Janus Workstation (PerkinElmer), allowing the compounds to interact with c-Myc prior to c-Myc binding with Max. In the current assay, DMSO was not allowed to exceed 2% v/v of the assay. 10 μl of 2× master mix containing streptavidin-coated donor beads (25 μg/ml final) and his6-Max (5 nM) were added. AlphaScreen measurements were performed on an Envision plate reader (PerkinElmer) utilizing the manufacturer's protocol.
Both master mixes were made in room temperature assay buffer (50 mM HEPES, 150 mM NaCl, 0.2% w/v BSA, 0.02% w/v Tween20, 40 μg/ml glycogen, 500 μM DTT, pH 8.0, wherein both DTT and glycogen were added fresh). Alpha beads were added to respective master solutions. All subsequent steps were performed in low light conditions. Solution 1: 2× solution of components with final concentrations of c-Myc Ni-coated Acceptor Beads (25 μg/ml), and biotinylated Ebox oligo (10 nM). Solution 2: 2× solution of streptavidin-coated donor beads (25 μg/ml final) and his6-Max […]. Solution 1 was added to 384-well plate (AlphaPlate-384, PerkinElmer) with Biotek EL406 liquid handler and the plates were centrifuged very briefly. 50 nL of compounds from stock plates were added by pin transfer using a Janus Workstation. Solution 2 (10 μL) was added with the liquid handler. Plates were sealed with foil to block light exposure and prevent evaporation. Plates were very briefly centrifuged followed by 2 hour incubation. AlphaScreen measurements were performed on an Envision 2104 utilizing the manufacturer's protocol. Excitation was at 680 nm for donor bead release of singlet oxygen and emission was read with a bandpass filter from 520-620 nm. Glycogen: Roche Diagnostics #10901393001. Plate 1536: Perkin Elmer, 6004350. Plate 384: Perkin Elmer, 6005350. Nickel-His Alpha Beads: 6760619R. The data from this assay are summarized in Table 3 below (Myc/Max/DNA Activity).

[1] = test system: human small lung cancer cell line H2171; test: Cell Viability Assay (ATPlite); format: cell-based; settings: NCI-H2171, 72 h, H2171 cells, incubated for three days, ATPlite readout
Description: Compounds of the invention were assayed for cell viability using the human small lung cancer cell line H2171 as described in the following protocol. Cells were counted and adjusted to 20,000 cells/mL. Using a Biotek EL406, 50 μL of cells in media were distributed into 384 well white plates from Thermo. Immediately after plating, compound in DMSO was distributed to plates. Compounds were added to plates using a 50 nL 384 well pin transfer manifold on a Janus workstation. Stocks were arrayed in 10 point dose response in DMSO stock in 384 well Greiner compound plates. After the addition of compounds, plates were incubated for three days in a 37° C. incubator. Cell viability was read out using ATPlite from Perkin Elmer. Lyophilized powder was resuspended in lysis buffer and diluted 1:2 with deionized water. 25 μL of this solution was added to each well using the Biotek liquid handler. Plates were incubated for 15 minutes at room temperature before signal was read on an Envision Plate Reader. The data from this assay are summarized in Table 3 below (H2171 activity).

T1 sequence (P01106 whole entry): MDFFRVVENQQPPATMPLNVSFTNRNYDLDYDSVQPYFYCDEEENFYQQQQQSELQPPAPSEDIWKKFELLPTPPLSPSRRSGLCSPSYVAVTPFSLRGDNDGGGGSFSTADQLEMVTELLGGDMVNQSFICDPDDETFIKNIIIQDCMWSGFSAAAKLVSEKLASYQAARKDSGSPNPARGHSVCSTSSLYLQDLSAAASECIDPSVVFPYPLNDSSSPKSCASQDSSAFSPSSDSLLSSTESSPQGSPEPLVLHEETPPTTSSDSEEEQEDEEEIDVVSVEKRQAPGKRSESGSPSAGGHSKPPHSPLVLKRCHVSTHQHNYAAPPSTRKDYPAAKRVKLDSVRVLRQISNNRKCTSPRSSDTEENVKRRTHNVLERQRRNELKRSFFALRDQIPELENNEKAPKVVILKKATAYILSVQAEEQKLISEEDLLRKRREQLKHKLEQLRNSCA

Row | pIC50 (c-Myc/Max/Ebox DNA) | pIC50 [1] | Structure (SMILES)
1 | > 6.30 | > 6.30 | CCC(C)NCCC(=O)Nc1sc2c(c1-c1nc3cnccc3s1)CCNC2 (stereo not drawn) [Compound 103, 3-(sec-butylamino)-N-(3-(thiazolo[4,5-c]pyridin-2-yl)-4,5,6,7-tetrahydrothieno[2,3-c]pyridin-2-yl)propanamide]
2 | > 6.30 | > 6.30 | CC(=O)Nc1sc2c(c1-c1nc3c(C)nccc3s1)CCNC2 [Compound 118, N-(3-(4-methylthiazolo[4,5-c]pyridin-2-yl)-4,5,6,7-tetrahydrothieno[2,3-c]pyridin-2-yl)acetamide]
3 | – | > 6.30 | CC(=O)Nc1sc2c(c1-c1nc3cnccc3s1)C[C@H](C)N[C@@H]2C [Compound 236]
4 | 5.30 to 6.30 | > 6.30 | CCN1Cc2sc(NC(C)=O)c(-c3nc4cnccc4s3)c2C[C@@H]1C [Compound 231, (S)—N-(6-ethyl-5-methyl-3-(thiazolo[4,5-c]pyridin-2-yl)-4,5,6,7-tetrahydrothieno[2,3-c]pyridin-2-yl)acetamide]
5 | > 6.30 | 5.30 to 6.30 | CC(=O)Nc1sc2c(c1-c1nc3cnccc3s1)CCNC2 [Compound 100, N-(3-(Thiazolo[4,5-c]pyridin-2-yl)-4,5,6,7-tetrahydrothieno[2,3-c]pyridin-2-yl)acetamide]
6 | > 6.30 | > 6.30 | O=C(CCN[C@@H]1C[C@H]2CNC[C@H]2C1)Nc1sc2c(c1-c1nc3cnccc3s1)CCNC2 [Compound 153]
7 | > 6.30 | > 6.30 | CCC(C)NCCC(=O)[15NH]c1sc2c(c1-c1nc3cnccc3s1)CCNC2 (stereo not drawn) [Compound 251, 3-(sec-Butylamino)-N-(3-(thiazolo[4,5-c]pyridin-2-yl)-4,5,6,7-tetrahydrothieno[2,3-c]pyridin-2-yl)propan-^15N-amide]
8 | > 6.30 | – | O=C(CCNC1CC1)Nc1sc2c(c1-c1nc3cnccc3s1)CCNC2 [Compound 221, 3-(cyclopropylamino)-N-(3-(thiazolo[4,5-c]pyridin-2-yl)-4,5,6,7-tetrahydrothieno[2,3-c]pyridin-2-yl)propanamide]
9 | > 6.30 | – | O=C(CCNCc1ncon1)Nc1sc2c(c1-c1nc3cnccc3s1)CCNC2 [Compound 181]
10 | > 6.30 | – | COC1(C)CCN(CCC(=O)Nc2sc3c(c2-c2nc4cnccc4s2)CCNC3)CC1 [Compound 151]
11 | > 6.30 | – | O=C(CCN[C@H]1[C@@H]2CNC[C@@H]21)Nc1sc2c(c1-c1nc3cnccc3s1)CCNC2 [Compound 211]
12 | > 6.30 | – | O=C(CCNC1CCOC1)Nc1sc2c(c1-c1nc3cnccc3s1)CCNC2 (stereo not drawn) [Compound 147]
13 | 5.30 to 6.30 | – | Cc1cccc2c1CCN(CCC(=O)Nc1sc3c(c1-c1nc4cnccc4s1)CCNC3)C2 [Compound 199]
14 | 5.30 to 6.30 | – | CC(=O)Nc1sc2c(c1-c1nc3cnccc3s1)CCN(CCN)C2 [Compound 121, N-(6-(2-aminoethyl)-3-(thiazolo[4,5-c]pyridin-2-yl)-4,5,6,7-tetrahydrothieno[2,3-c]pyridin-2-yl)acetamide hydrochloride]
15 | 5.30 to 6.30 | – | CC(=O)Nc1sc2c(c1-c1nc3cnccc3s1)CNC2 [Compound 102, N-(3-(thiazolo[4,5-c]pyridin-2-yl)-5,6-dihydro-4H-thieno[2,3-c]pyrrol-2-yl)acetamide]
16 | 5.30 to 6.30 | – | Cc1ncc(CNCCC(=O)Nc2sc3c(c2-c2nc4cnccc4s2)CCNC3)s1 [Compound 186]
17 | > 6.30 | – | O=C(CCN1CCC[C@@]2(CCCN2)C1)Nc1sc2c(c1-c1nc3cnccc3s1)CCNC2 [Compound 124]
18 | 5.30 to 6.30 | – | O=C(CCN1CCn2nccc2C1)Nc1sc2c(c1-c1nc3cnccc3s1)CCNC2 [Compound 198]
19 | 5.30 to 6.30 | – | O=C(CCN1CC(F)(F)C1)Nc1sc2c(c1-c1nc3cnccc3s1)CCNC2 [Compound 194]
20 | > 6.30 | – | CC(NCCC(=O)Nc1sc2c(c1-c1nc3cnccc3s1)CCNC2)c1ncc[nH]1 (stereo not drawn) [Compound 201]

Row | pIC50 (c-Myc/Max/Ebox DNA) | pIC50 [1] | Structure (SMILES)
21 | 4.60 to 5.30 | – | CN(CCC(=O)Nc1sc2c(c1-c1nc3cnccc3s1)CCNC2)Cc1nc2ccccc2s1 [Compound 205]
22 | > 6.30 | – | O=C(CCNCc1ccn[nH]1)Nc1sc2c(c1-c1nc3cnccc3s1)CCNC2 [Compound 166]
23 | 5.30 to 6.30 | – | O=C(CCN1CCC(c2ccc(Cl)cc2)CC1)Nc1sc2c(c1-c1nc3cnccc3s1)CCNC2 [Compound 143]
24 | > 6.30 | – | O=C(CCNCc1ncc[nH]1)Nc1sc2c(c1-c1nc3cnccc3s1)CCNC2 [Compound 215]
25 | > 6.30 | – | NC(=O)C1(CNCCC(=O)Nc2sc3c(c2-c2nc4cnccc4s2)CCNC3)CCOCC1 [Compound 202]
26 | > 6.30 | – | COC(=O)CCCNCCC(=O)Nc1sc2c(c1-c1nc3cnccc3s1)CCNC2 [Compound 168]
27 | < 4.60 | – | COCCNCCC(=O)Nc1sc2c(c1-c1nc3cncnc3s1)CCNC2 [Compound 252]
28 | 5.30 to 6.30 | – | O=C(CCNCc1noc2c1CNCC2)Nc1sc2c(c1-c1nc3cnccc3s1)CCNC2 [Compound 209]
29 | > 6.30 | – | O=C(CCN1CCCOCC1)Nc1sc2c(c1-c1nc3cnccc3s1)CCNC2 [Compound 170]
30 | > 6.30 | – | O=C(CCN1CCC2COCC2C1)Nc1sc2c(c1-c1nc3cnccc3s1)CCNC2 (stereo not drawn) [Compound 213]
31 | > 6.30 | – | O=C(CCN1CC2CCC2C1)Nc1sc2c(c1-c1nc3cnccc3s1)CCNC2 (stereo not drawn) [Compound 130]
32 | 5.30 to 6.30 | – | CC1(C#N)CN(CCC(=O)Nc2sc3c(c2-c2nc4cnccc4s2)CCNC3)C1 [Compound 196]
33 | > 6.30 | – | O=C(CCNC1CC(O)C1)Nc1sc2c(c1-c1nc3cnccc3s1)CCNC2 (stereo not drawn) [Compound 167]
34 | > 6.30 | – | O=C(CCNC[C@H]1CC2(CCNCC2)CO1)Nc1sc2c(c1-c1nc3cnccc3s1)CCNC2 [Compound 207]
35 | 4.60 to 5.30 | – | O=C(CCNCc1cnc2ccccn12)Nc1sc2c(c1-c1nc3cnccc3s1)CCNC2 [Compound 212]
36 | > 6.30 | – | O=C(CCNCc1cscn1)Nc1sc2c(c1-c1nc3cnccc3s1)CCNC2 [Compound 160]
37 | > 6.30 | – | O=C(CCNC1CCNCC1)Nc1sc2c(c1-c1nc3cnccc3s1)CCNC2 [Compound 165]
38 | > 6.30 | – | O=C(CCN[C@@H]1C2CCC1NC2)Nc1sc2c(c1-c1nc3cnccc3s1)CCNC2 (stereo partly drawn) [Compound 173]
39 | 4.60 to 5.30 | – | CCN1CCc2c(sc(NC(C)=O)c2-c2nc3cnccc3s2)[C@H]1C [Compound 229, (R)—N-(6-ethyl-7-methyl-3-(thiazolo[4,5-c]pyridin-2-yl)-4,5,6,7-tetrahydrothieno[2,3-c]pyridin-2-yl)acetamide]

Row | Structure (SMILES) | pIC50 (c-Myc/Max/Ebox DNA) | pIC50 [1]
40 | CCC(C)NCCC(=O)Nc1sc2c(c1-c1nc3cnccc3s1)CCN(C(C)C)C2 (stereo not drawn) [Compound 116, 3-(sec-butylamino)-N-(6-isopropyl-3-(thiazolo[4,5-c]pyridin-2-yl)-4,5,6,7-tetrahydrothieno[2,3-c]pyridin-2-yl)propanamide dihydrochloride] | > 6.30 | > 6.30
41 | CC[C@H](C)NCCC(=O)Nc1sc2c(c1-c1nc3cnccc3s1)CCN(C(C)C)C2 [Compound 239, (S)-3-(sec-butylamino)-N-(6-isopropyl-3-(thiazolo[4,5-c]pyridin-2-yl)-4,5,6,7-tetrahydrothieno[2,3-c]pyridin-2-yl)propanamide] | > 6.30 | > 6.30
42 | Cc1cc(CC(C)NCCC(=O)Nc2sc3c(c2-c2nc4cnccc4s2)CCNC3)on1 (stereo not drawn) [Compound 156] | > 6.30 | –
43 | CCN1[C@H](C)c2sc(NC(C)=O)c(-c3nc4cnccc4s3)c2C[C@@H]1C [Compound 253] | > 6.30 | –
